In paper PMC11721293 (JCI Insight, 2025):
Where “and” joins values, the source holds several entries; their conditions need not be identical. Equal entries are not always repeated.

Experiments:
[1] = system: VSV-SARS-CoV-2-S pseudovirus; experiment: microbe, parasite or virus in culture; format: cell-based; settings: for EC50: read-out: EC50
[2] = system: Huh7 cells; settings: initial screening
[3] = system: HEK293A2T2 cells; settings: initial screening
[4] = system: SARS-CoV-2-nLUC; experiment: microbe, parasite or virus in culture; format: cell-based; settings: VeroE6; 15 μM GGTI; 24 h
[5] = system: SARS-CoV-2; format: cell-based
[6] = system: lysosomal compartment; experiment: LysoTracker staining of VeroTA6 cells
Procedure: (A) VeroTA6 cells were seeded
post treatment, the cells were stained with lysotracker (Thermofisher, L7528) and visualized under
the microscope (left). The fluorescence intensity was captured and quantified for each treatment
B), the significance was calculated using one-way ANOVA with Dunnett’s test with multiple
comparison to the DMSO control, and the P values are depicted as ns for P>0.05, ** for P <0.01,

| SMILES | Max % [1] | EC50 [1] | CC50 [2] [µM] | also measured |
| --- | --- | --- | --- | --- |
| CN1CCC(N(c2ccccc2)c2ccccc2)CC1 [NCGC00351675] | 17.1% | > 100 µM | > 30 | – |
| OC(CCCN1CCCCC1)(c1ccccc1)c1ccccc1 [NCGC00016624] | 57.9% | 12.8 µM | – | – |
| CCN1CCN(C2c3ccccc3-c3ccc(Br)cc32)CC1 (stereo not shown) [NCGC00351673] | 77.7% | 28.1 µM | > 30 | – |
| CCc1ccc2c(c1)N(CC(C)CN(C)C)c1ccccc1S2.Cl (stereo not shown) [NCGC00014485] | 90.9% | 2.8 µM | – | – |
| CN1CCC(N(Cc2cccs2)c2ccccc2)CC1 [NCGC00183847] | 64.0% and 54.6% | 11.4 µM and 18.4 µM | > 30 | CC50 [3]: > 30 µM |
| CN1CCN(C(c2ccccc2)c2ccc(Cl)cc2)CC1 (stereo not shown) [NCGC00179384] | – | – | – | CC50 [3]: > 30 µM |
| CC(CN(C)C)CN1c2ccccc2S(=O)(=O)c2ccccc21 (stereo not shown) [NCGC00182075] | – | > 30 µM | – | – |
| Clc1ccc(C(c2ccc(Cl)cc2)N2CCNCC2)cc1 [NCGC00354584] | 100.0% | 2 µM | – | – |
| CN(C)CC[C@@H](c1ccc(Br)cc1)c1ccccn1 [NCGC00162100] | 59.8% | 23.3 µM | – | – |
| C[C@@H](CN1c2ccccc2Sc2ccccc21)N(C)C [NCGC00015817] | 87.0% | 4.5 µM | – | – |
| CN(C)CC[C@H](c1ccc(Cl)cc1)c1ccccn1 [NCGC00015227] | – | > 30 µM | – | – |
| Cc1cccc(CN2CCN([C@@H](c3ccccc3)c3ccc(Cl)cc3)CC2)c1 [NCGC00018296] | 54.8% | > 30 µM | – | – |
| OC(c1ccccc1)(c1ccccc1)C1CN2CCC1CC2 (stereo not shown) [NCGC00160492] | – | > 30 µM | – | – |
| Clc1ccc(C(c2ccc(Cl)cc2)N2CCOCC2)cc1 [NCGC00354586] | – | > 100 µM | > 30 | – |
| CN1CCN(C(c2ccc(Cl)cc2)c2ccc(Cl)cc2)CC1 [NCGC00351413] | 67.9% | 2.6 µM | 12.9 | – |
| Cc1ccc(/C(=C/CN2CCCC2)c2ccccn2)cc1 [NCGC00024714] | – | > 30 µM | – | – |
| CN(C)CCCN1c2ccccc2Sc2ccc(Cl)cc21 [NCGC00015273] | – | > 30 µM | – | – |
| CC(C)N1CCN([C@@H](c2ccccc2)c2ccc(Cl)cc2)CC1 [NCGC00347044] | 90.9% | 3.6 µM | – | – |
| CN(C)CCOC(c1ccccc1)c1ccccc1 [NCGC00015335] | 17.9% | – | – | – |
| C[C@@H]1O[C@@]2(CS1)CN1CCC2CC1 [NCGC00485995] | – | 17.9 µM | – | – |
| O=C(CCCN1CCN(c2ccc(F)cc2)CC1)NC1c2ccccc2CSc2ccccc21 (stereo not shown) [NCGC00183837] | – | > 30 µM | – | – |
| COc1ccc(CN(CCN(C)C)c2ccccn2)cc1 [NCGC00015822] | 49.2% | > 30 µM | – | – |
| C(=C/c1ccccc1)/CN1CCN(C(c2ccccc2)c2ccccc2)CC1 [NCGC00015246] | 65.8% | > 30 µM | 22 | – |
| CC(=O)N1CCN([C@@H](c2ccccc2)c2ccc(Cl)cc2)CC1 [NCGC00347049] | – | > 100 µM | > 30 | – |

| SMILES | Max % [1] | EC50 [1] | CC50 [2] [µM] | also measured |
| --- | --- | --- | --- | --- |
| CN(C)CCN(Cc1ccc(Cl)cc1)c1ccccn1 [NCGC00016672] | 77.6% | 11.1 µM | – | – |
| CC(C)c1ccc2oc3nc(N)c(C(=O)O)cc3c(=O)c2c1 [NCGC00167472] | 59.8% | – | – | – |
| Cc1nc[nH]c1CN1CCN(C(=O)N[C@@H](CC(C)C)C(=O)O)[C@@H](Cc2ccccc2)C1=O [GGTI2418] | – | – | – | effect on viral replication [4]: no effect on viral replication |
| CN(c1nccc(=O)[nH]1)C1CCN(c2nc3ccccc3n2Cc2ccc(F)cc2)CC1 [NCGC00181013] | – | > 30 µM | – | – |
| CCN1CCN(C(c2ccc(Cl)cc2)c2ccc(Cl)cc2)CC1 [NCGC00351414] | 83.6% | – | > 30 | CC50 [3]: > 30 µM |
| CN(C)CCOC(c1ccc(Cl)cc1)c1ccccn1 (stereo not shown) [NCGC00166141] | 35.5% | 26.3 µM | – | – |
| CC(C)(C(=O)O)c1ccc([C@@H](O)CCCN2CCC(C(O)(c3ccccc3)c3ccccc3)CC2)cc1 [NCGC00015453] | – | > 30 µM | – | – |
| CN1CCC(=C2c3ccccc3C=Cc3ccccc32)CC1 [NCGC00015252] | 52.7% | 12.3 µM | – | – |
| COc1ccc(CCN2CCC(Nc3nc4ccccc4n3Cc3ccc(F)cc3)CC2)cc1 [NCGC00016913] | 79.3% | 8.4 µM | – | – |
| Clc1ccc(C(c2ccccc2)N2CCNCC2)cc1 (stereo not shown) [NCGC00245963] | 99.5% | – | > 30 | CC50 [3]: > 30 µM |
| CCOC(=O)N1CCC(=C2c3ccc(Cl)cc3CCc3cccnc32)CC1 [NCGC00015619] | – | > 30 µM | – | – |
| COc1ccc(CN(CCN(C)C)c2ncccn2)cc1 [NCGC00178145] | – | > 30 µM | – | – |
| Cc1ccccc1[C@@H](OCCN(C)C)c1ccccc1 [NCGC00015771] | 25.1% | > 30 µM | – | – |
| Clc1ccc(Cn2c(CN3CCCC3)nc3ccccc32)cc1 [NCGC00015243] | – | > 30 µM | – | – |
| FC(F)(F)CN1CCN([C@@H](c2ccccc2)c2ccc(Cl)cc2)CC1 [NCGC00351281] | 21.1% | > 100 µM | > 30 | – |
| CC(CN1c2ccccc2Sc2cccnc21)N(C)C (stereo not shown) [NCGC00181101] | – | > 30 µM | – | – |
| Cl.Cl.O=C(O)COCCN1CCN(C(c2ccccc2)c2ccc(Cl)cc2)CC1 (stereo not shown) [NCGC00016949] | 29.7% | > 30 µM | > 30 | – |
| CN1CCC(=C2c3ccccc3CCc3cccnc32)CC1 [NCGC00182705] | 45.5% | > 30 µM | – | – |
| CN(C)CCCN1c2ccccc2Sc2ccccc21 [NCGC00015829] | – | – | 18.4 | CC50 [3]: > 30 µM |
| CC(C)(C)c1ccc(C(=O)CCCN2CCC(OC(c3ccccc3)c3ccccc3)CC2)cc1 [NCGC00164603] | – | > 30 µM | – | – |
| c1ccc2c(c1)Sc1ccccc1N2CC1CN2CCC1CC2 (stereo not shown) [NCGC00183046] | – | – | 26.3 | CC50 [3]: > 30 µM |
| c1ccc(CN(CC2=NCCN2)c2ccccc2)cc1 [NCGC00016613] | – | > 30 µM | – | – |
| c1ccc2c(c1)Sc1ccccc1N2C[C@H]1CN2CCC1CC2 [NCGC00014679] | 100.0% | 1.5 µM | – | – |
| CN1CCCC(n2nc(Cc3ccc(Cl)cc3)c3ccccc3c2=O)CC1 (stereo not shown) [NCGC00177979] | 96.4% | 4.3 µM | – | – |

| SMILES | Max % [1] | EC50 [1] | CC50 [2] [µM] | also measured |
| --- | --- | --- | --- | --- |
| CN(C)CCN(Cc1cccs1)c1ccccn1 [NCGC00015704] | – | > 30 µM | – | – |
| NC1=NCC2c3ccccc3Cc3ccccc3N12 (stereo not shown) [NCGC00165791] | – | > 100 µM | – | – |
| CN1CCN([C@H](c2ccccc2)c2ccc(Cl)cc2)CC1 [NCGC00343774] | 66.4% | – | 14.4 | CC50 [3]: > 30 µM |
| Cc1ccc(C(=CCN2CCCC2)c2cccc(C=CC(=O)O)n2)cc1 [NCGC00182053] | – | > 30 µM | – | – |
| C[C@@H]1CN(C2CCC(C#N)(c3ccc(F)cc3)CC2)CC[C@]1(C(=O)O)c1ccccc1.Cl (stereo partly shown) [NCGC00016939] | 37.9% | > 30 µM | – | – |
| Clc1ccc(C(c2ccccc2)N2CCNCC2)cc1 (stereo not shown) [NCGC00345880] | 99.6% and 75.2% | – | 13.4 | CC50 [3]: > 30 µM |
| CN1CCN([C@@H](c2ccccc2)c2ccc(Cl)cc2)CC1 [NCGC00343775] | 77.3% | – | 11.2 | CC50 [3]: > 30 µM |
| Clc1ccc(C(c2ccccc2)N2CCNCC2)cc1 (stereo not shown) [NCGC00345879] | 100.0% | 3 µM | 28 | – |
| Clc1ccc([C@H](c2ccccc2)N2CCN(C3CCCCC3)CC2)cc1 [NCGC00347039] | 70.8% | 4 µM | 14.1 | – |
| Cc1cccn2c(=O)c(-c3nnn[n-]3)cnc12.[K+] [NCGC00167434] | 24.2% | > 30 µM | – | – |
| CN(C)C(=O)COC(=O)Cc1ccc(OC(=O)c2ccc(NC(=N)N)cc2)cc1 [camostat] | – | – | – | time-of-addition result [5]: only E64d, and not camostat, was effective in blocking the entry step |
| CN1CCN(C(c2ccccc2)c2ccccc2)CC1 [NCGC00016421] | 58.1% | 25.2 µM | > 30 | – |
| COc1ccc(CN2CCN([C@@H](c3ccccc3)c3ccc(Cl)cc3)CC2)c(OC)c1 [NCGC00346845] | 64.2% | 22.5 µM | 24.6 | – |
| CN1CCC(=C2c3ccccc3CC(=O)c3sccc32)CC1 [NCGC00015580] | – | > 30 µM | – | – |
| CN1CCC(CN2c3ccccc3Sc3ccccc32)C1 (stereo not shown) [NCGC00014482] | – | – | > 30 | CC50 [3]: > 30 µM |
| CN1CCC(OC(c2ccccc2)c2ccccc2)CC1 [NCGC00016395] | 51.1% | 5.2 µM | – | – |
| CN1CCCN([C@@H](c2ccccc2)c2ccc(Cl)cc2)CC1 [NCGC00018271] | – | – | > 30 | CC50 [3]: > 30 µM |
| OCCOCCN1CCN([C@@H](c2ccccc2)c2ccc(Cl)cc2)CC1 [NCGC00018255] | 26.3% | > 100 µM | > 30 | – |
| CN1CCC[C@@H]1CCO[C@](C)(c1ccccc1)c1ccc(Cl)cc1 [NCGC00016710] | – | – | > 30 | CC50 [3]: > 30 µM |
| CCN(CC)CCCC(C)Nc1ccnc2cc(Cl)ccc12 (stereo not shown) [CQ, Chloroquine] | – | – | – | LysoTracker fluorescence intensity ([6]; VeroTA6, 10 μM, 30 min): significant reduction in fluorescence intensity; Lysotracker ([6]; sheet S5A, individual measurements): 560.723 and 174.035 and 160.899 and 432.593 and 438.73 and 246.495 and 247.855 and 602.458 and 376.298 and 321.5 and 378.198 and 326.501 and 374.374 and 217.144 and 290.704 and 270.841 and 377.374 and 275.759 and 524.267 and 701.544 and 422.374 |
| CN(C)CC/C=C1/c2ccccc2COc2ccc(CC(=O)O)cc21 [NCGC00263532] | – | > 30 µM | – | – |
| CN1CCC(N(c2ccccc2)c2ccc(OC(C)(C)C)cc2)CC1 [NCGC00346851] | 68.3% | 14.9 µM | > 30 | – |
| CN1[C@@H]2CC[C@H]1CC(O[C@@H](c1ccccc1)c1ccc(Cl)cc1)C2 (stereo partly shown) [NCGC00015195] | 100.0% | 3.1 µM | – | – |
